Source: publication PMC11284788, “NN1213 – A Potent, Long-Acting, and Selective Analog of Human Amylin” (Journal of Medicinal Chemistry, 2024)
≈ marks a conversion by molar mass, not a printed value. Numbered stars: 1 amine (or outer) side, 2 acyl side, 3 side chain; on linkers, the order of the positions; unused ones are H or OH. Bridge positions count the residues as written; N and C are the ends. Side chains are listed from the residue outwards. Peptide text beside a SMILES is read from it. * marks the point of attachment. C20 diacid = O=C(O)CCCCCCCCCCCCCCCCCCC(=O)*; γGlu = O=C(O)[C@H](CCC(=O)[*:2])N[*:1]

How the values were obtained:
[1] = Solubility versus pH profile
[2] = target: T1, rAMY3R (Rattus norvegicus, UniProt P32214+Q9JJ73); experiment: scintillation proximity binding assay, rAMY3R membranes; parameters: expressed in transfected cells; host or cells: BHK tk-ts 13, transient co-transfection (FuGENE 6); details: for rAMY3R pIC50: SPA binding assay, Tables S13 and S15; for ratio rCTR/rAMY3R: ratio of binding IC50 values
T1 sequence (P32214 25-479 isoform P32214-2 limits assumed): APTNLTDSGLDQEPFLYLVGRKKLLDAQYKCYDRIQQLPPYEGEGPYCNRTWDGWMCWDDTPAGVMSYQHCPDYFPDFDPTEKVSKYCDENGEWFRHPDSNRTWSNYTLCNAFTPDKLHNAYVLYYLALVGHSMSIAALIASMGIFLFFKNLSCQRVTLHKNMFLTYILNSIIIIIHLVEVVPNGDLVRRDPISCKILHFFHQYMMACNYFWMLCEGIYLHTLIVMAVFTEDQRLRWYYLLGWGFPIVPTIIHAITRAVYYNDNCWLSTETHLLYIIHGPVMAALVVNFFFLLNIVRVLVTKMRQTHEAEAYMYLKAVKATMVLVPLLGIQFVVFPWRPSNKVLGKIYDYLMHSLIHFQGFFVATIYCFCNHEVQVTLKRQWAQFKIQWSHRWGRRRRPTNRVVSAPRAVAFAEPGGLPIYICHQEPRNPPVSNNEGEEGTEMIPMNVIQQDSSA
T1 sequence (Q9JJ73 23-147 partner): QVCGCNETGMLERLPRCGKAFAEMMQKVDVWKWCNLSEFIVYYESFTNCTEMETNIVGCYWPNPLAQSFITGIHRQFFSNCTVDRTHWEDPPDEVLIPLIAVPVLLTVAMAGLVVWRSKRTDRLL
Experimental: The apparent binding affinities were determined using a scintillation proximity assay with beads from PerkinElmer and cell membranes containing the AMY3R or CTRs. […] Membranes were harvested and membranes were prepared and kept at −80 °C until use. The assay was performed in a 384-well Optiplate (PerkinElmer). Membranes were mixed with scintillation proximity assay beads in a 1:1 ratio. […] Samples were analyzed on a TopCounter (Packard). The IC50 values were calculated using GraphPad Prism. See Supporting Information S7: SAR Screening Assay Methods (Binding Assays (Human and Rat)) for more information.
Binding Assays (Human and Rat). Brief descriptions of the methods used to determine binding affinities for SAR analysis are described below. Curves and IC50 values were plotted and calculated in GraphPad Prism using nonlinear regression (one site binding competition analysis), with pIC50 values […]
values were used to calculate the binding affinity ratios in order to express the selectivity of compounds for the AMY3R versus the CTR.
CTR Binding Assay. The binding assay was performed using scintillation proximity assay (SPA) beads (RPNQ0001) from PerkinElmer and cell membranes containing either the hCTR or rCTR. BHK […]
(§1) Membranes were prepared in the following way: the cells were rinsed with PBS and incubated with Versene for approximately 5 min before harvesting. The cells were flushed with PBS and the cell-suspension was centrifuged for 5 min at 1000 rpm. Cells were homogenized (Ultra Turrax) in a buffer […]
containing 20 mM Na-HEPES and 0.1 mM EDTA (pH 7.4, buffer 2). The resulting pellet was re-suspended in buffer 2 and protein concentration was measured (BCA protein assay, Pierce). The homogenate was kept cold during the whole procedure. The membranes were stored at –80 °C until […]
The binding assay was performed in a 384-well Optiplate (PerkinElmer) in a total volume of 40 μL.
Membranes were mixed with SPA beads in a 1:1 ratio. […]
mg/well. Test compounds were dissolved in DMSO and further diluted in assay buffer (50 mM HEPES, pH 7.4, 1 mM CaCl2, 5 mM MgCl2, 0.1% ovalbumin, and 0.02% Tween-20).
Calcitonin (NEX422 PerkinElmer) was dissolved in assay buffer and added to the Optiplate at a final […]
prior to centrifugation (1500 rpm, 10 min). Samples were analyzed on TopCounter (Packard).
AMY3R Binding Assay. The binding assay was performed using SPA beads (RPNQ0001) from PerkinElmer and cell membranes containing either the hAMY3R or rAMY3R. BHK tk-ts 13 cells were […]
as §1, with “and cultured as described above. Membranes” for “Membranes”, “buffer containing 20 mM Na-HEPES and 10 mM EDTA (pH 7.4), and” for “buffer”
The resulting pellet was re-suspended, homogenized, and
7.4, buffer 2). The resulting pellet was re-suspended in buffer 2 and protein concentration was measured (BCA protein assay, Pierce). The homogenate was kept cold during the whole procedure.
The membranes were stored at –80 °C until use.
Membranes were mixed with SPA beads in a 1:1 ratio. The final concentration of SPA beads was 0.05 mg/well. Test compounds were dissolved in DMSO and further diluted in assay buffer (50 mM […]
rAMY (NEX448 PerkinElmer) was dissolved in assay buffer and added to the Optiplate at a final

[3] = target: T2, hAMY3R (Homo sapiens, UniProt O60896+P30988); experiment: cAMP-responsive element luciferase reporter assay, human AMY3R; type: cell-based; parameters: expressed in transfected cells; details: for ratio hCTR/hAMY3R: ratio of luciferase EC50 values; for hAMY3R pEC50: Tables S12 and S14
T2 sequence (P30988 25-474): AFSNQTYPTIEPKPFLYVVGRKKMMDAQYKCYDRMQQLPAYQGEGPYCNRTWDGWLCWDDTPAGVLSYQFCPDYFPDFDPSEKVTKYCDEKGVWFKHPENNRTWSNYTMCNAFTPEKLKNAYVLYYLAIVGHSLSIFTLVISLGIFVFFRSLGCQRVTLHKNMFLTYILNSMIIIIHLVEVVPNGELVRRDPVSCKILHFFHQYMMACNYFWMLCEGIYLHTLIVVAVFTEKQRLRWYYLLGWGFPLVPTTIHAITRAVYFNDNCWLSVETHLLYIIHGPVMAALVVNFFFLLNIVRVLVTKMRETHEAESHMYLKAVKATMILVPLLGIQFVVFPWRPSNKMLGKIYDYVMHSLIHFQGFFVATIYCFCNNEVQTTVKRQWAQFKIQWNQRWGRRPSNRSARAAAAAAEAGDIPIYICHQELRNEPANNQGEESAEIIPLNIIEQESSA
T2 sequence (O60896 24-148 partner): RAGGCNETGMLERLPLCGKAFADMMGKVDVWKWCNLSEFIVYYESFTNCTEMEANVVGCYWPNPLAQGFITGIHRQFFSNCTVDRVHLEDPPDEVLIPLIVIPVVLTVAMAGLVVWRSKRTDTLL

[4] = bis-tris-propane buffer, pH 6, aqueous buffer
[5] = bis-tris-propane buffer, pH 6.5, aqueous buffer
[6] = bis-tris-propane buffer, pH 7, aqueous buffer
[7] = bis-tris-propane buffer, pH 7.5, aqueous buffer
[8] = bis-tris-propane buffer, pH 8, aqueous buffer
[9] = lactate buffer, pH 4, aqueous buffer
[10] = lactate buffer, pH 5, aqueous buffer
[11] = luciferase (human receptor assay)

Row | Structure (SMILES) | solubility kinetic [1, 4] | solubility kinetic [1, 5] | solubility kinetic [1, 6] | solubility kinetic [1, 7] | solubility kinetic [1, 8] | solubility kinetic [1, 9] | solubility kinetic [1, 10] | rAMY3R pIC50 [2] | ratio rCTR/rAMY3R [2] | ratio hCTR/hAMY3R [3] | hAMY3R pEC50 [3, 11] | EC50 ([3]; luciferase (human receptor assay), BHK cells stably expressing hCTR+RAMP3 and CRE-luciferase, 3 h, 37 °C, 10% FBS, read-out: hAMY3R EC50)
1 | CC(C)C[C@H](NC(=O)[C@H](CCCNC(=N)N)NC(=O)[C@H](CCC(N)=O)NC(=O)[C@@H](NC(=O)[C@H](C)NC(=O)[C@@H]1CSSC[C@H](NC(=O)[C@@H](N)CCCCNC(=O)CC[C@H](NC(=O)CC[C@H](NC(=O)CCCCCCCCCCCCCCCCCCC(=O)O)C(=O)O)C(=O)O)C(=O)N[C@@H](CC(N)=O)C(=O)N[C@@H]([C@@H](C)O)C(=O)N[C@@H](C)C(=O)N[C@@H]([C@@H](C)O)C(=O)N1)[C@@H](C)O)C(=O)N[C@@H](C)C(=O)N[C@@H](CC(=O)O)C(=O)N[C@@H](Cc1ccccc1)C(=O)N[C@@H](CC(C)C)C(=O)N[C@@H](CCCNC(=N)N)C(=O)N[C@@H](Cc1c[nH]cn1)C(=O)N[C@@H](CO)C(=O)N[C@@H](CO)C(=O)N[C@@H](CC(N)=O)C(=O)N1CCC[C@H]1C(=O)N[C@@H](Cc1ccccc1)C(=O)NCC(=O)N[C@@H](C)C(=O)N1CCC[C@H]1C(=O)N[C@@H](CC(C)C)C(=O)N[C@@H](CO)C(=O)N[C@@H](CO)C(=O)N[C@H](C(=O)N[C@@H](CC(N)=O)C(=O)N[C@H](C(=O)NCC(=O)N[C@@H](CO)C(=O)N[C@@H](CC(=O)O)C(=O)N[C@H](C(=O)N[C@@H](Cc1ccc(O)cc1)C(N)=O)[C@@H](C)O)C(C)C)[C@@H](C)O [Peptide 7] (H-K([γGlu-γGlu-C20 diacid])CNTATCATQRLADFLRHSSNPFGAPLSSTNVGSDTY-NH2; disulfide 2-7) | 189 µM (≈ 853 µg/mL) | ≥ 200 µM | 195 µM (≈ 880 µg/mL) | ≥ 200 µM | ≥ 200 µM | 96 µM (≈ 433 µg/mL) | 141 µM (≈ 636 µg/mL) | 9.00 | 7.5 | 6.9 | – | –
2 | CC[C@H](C)[C@H](NC(=O)[C@H](C)NC(=O)CNC(=O)[C@H](Cc1ccccc1)NC(=O)[C@H](CC(N)=O)NC(=O)[C@@H]1CCCN1C(=O)[C@H](CO)NC(=O)[C@H](CO)NC(=O)[C@H](Cc1c[nH]cn1)NC(=O)[C@H](CCCNC(=N)N)NC(=O)[C@H](CC(C)C)NC(=O)[C@H](Cc1ccccc1)NC(=O)[C@H](CC(N)=O)NC(=O)[C@H](C)NC(=O)[C@H](CC(C)C)NC(=O)[C@H](CCCNC(=N)N)NC(=O)[C@H](CCC(N)=O)NC(=O)[C@@H](NC(=O)[C@H](C)NC(=O)[C@@H]1CSSC[C@H](NC(=O)[C@H](CCCCN)NC(=O)COCCOCCNC(=O)COCCOCCNC(=O)CC[C@H](NC(=O)CCCCCCCCCCCCCCCCCCC(=O)O)C(=O)O)C(=O)N[C@@H](CC(N)=O)C(=O)N[C@@H]([C@@H](C)O)C(=O)N[C@@H](C)C(=O)N[C@@H]([C@@H](C)O)C(=O)N1)[C@@H](C)O)C(=O)N1CCC[C@H]1C(=O)N[C@@H](CO)C(=O)N[C@@H](CO)C(=O)N[C@H](C(=O)N[C@@H](CC(N)=O)C(=O)N[C@H](C(=O)NCC(=O)N[C@@H](CO)C(=O)N[C@@H](CC(N)=O)C(=O)N[C@H](C(=O)N[C@@H](Cc1ccc(O)cc1)C(N)=O)[C@@H](C)O)C(C)C)[C@@H](C)O [Peptide 10] | ≥ 200 µM | ≥ 200 µM | ≥ 200 µM | ≥ 200 µM | ≥ 200 µM | ≥ 200 µM | ≥ 200 µM | 8.52 | 116 | 23 | 9.36 | 0.432 nM
3 | CC[C@H](C)[C@H](NC(=O)[C@H](C)NC(=O)CNC(=O)[C@H](Cc1ccccc1)NC(=O)[C@H](CC(N)=O)NC(=O)[C@@H]1CCCN1C(=O)[C@H](CO)NC(=O)[C@H](CO)NC(=O)[C@H](Cc1c[nH]cn1)NC(=O)[C@H](CCCNC(=N)N)NC(=O)[C@H](CC(C)C)NC(=O)[C@H](Cc1ccccc1)NC(=O)[C@H](CC(N)=O)NC(=O)[C@H](C)NC(=O)[C@H](CC(C)C)NC(=O)[C@H](CCCNC(=N)N)NC(=O)[C@H](CCC(N)=O)NC(=O)[C@@H](NC(=O)[C@H](C)NC(=O)[C@@H]1CSSC[C@H](NC(=O)[C@H](CCCNC(=N)N)NC(=O)CNC(=O)CC[C@H](NC(=O)CCCCCCCCCCCCCCCCCCC(=O)O)C(=O)O)C(=O)N[C@@H](CC(N)=O)C(=O)N[C@@H]([C@@H](C)O)C(=O)N[C@@H](C)C(=O)N[C@@H]([C@@H](C)O)C(=O)N1)[C@@H](C)O)C(=O)N1CCC[C@H]1C(=O)N[C@@H](CO)C(=O)N[C@@H](CO)C(=O)N[C@H](C(=O)N[C@@H](CC(N)=O)C(=O)N[C@H](C(=O)NCC(=O)N[C@@H](CO)C(=O)N[C@@H](Cc1c[nH]cn1)C(=O)N[C@H](C(=O)N[C@@H](Cc1ccc(O)cc1)C(N)=O)[C@@H](C)O)C(C)C)[C@@H](C)O [Peptide 19] ({C20 diacid-γGlu}-GRCNTATCATQRLANFLRHSSPNFGAIPSSTNVGSHTY-NH2; disulfide 3-8) | ≥ 200 µM | ≥ 200 µM | ≥ 200 µM | 50 µM (≈ 224 µg/mL) | 68 µM (≈ 305 µg/mL) | ≥ 200 µM | ≥ 200 µM | 9.69 | 84 | 6 | 9.65 | –
